Measurements taken from patent US20140023611A1 (priority 2010, published 2014).
pIC50: −log10 of the molar value.

Biological target: T1, rat NaP2b (SLC34A2) (Rattus norvegicus, UniProt Q9JJ09)
T1 construct: host or cells: HEK293
T1 sequence (Q9JJ09 1-695): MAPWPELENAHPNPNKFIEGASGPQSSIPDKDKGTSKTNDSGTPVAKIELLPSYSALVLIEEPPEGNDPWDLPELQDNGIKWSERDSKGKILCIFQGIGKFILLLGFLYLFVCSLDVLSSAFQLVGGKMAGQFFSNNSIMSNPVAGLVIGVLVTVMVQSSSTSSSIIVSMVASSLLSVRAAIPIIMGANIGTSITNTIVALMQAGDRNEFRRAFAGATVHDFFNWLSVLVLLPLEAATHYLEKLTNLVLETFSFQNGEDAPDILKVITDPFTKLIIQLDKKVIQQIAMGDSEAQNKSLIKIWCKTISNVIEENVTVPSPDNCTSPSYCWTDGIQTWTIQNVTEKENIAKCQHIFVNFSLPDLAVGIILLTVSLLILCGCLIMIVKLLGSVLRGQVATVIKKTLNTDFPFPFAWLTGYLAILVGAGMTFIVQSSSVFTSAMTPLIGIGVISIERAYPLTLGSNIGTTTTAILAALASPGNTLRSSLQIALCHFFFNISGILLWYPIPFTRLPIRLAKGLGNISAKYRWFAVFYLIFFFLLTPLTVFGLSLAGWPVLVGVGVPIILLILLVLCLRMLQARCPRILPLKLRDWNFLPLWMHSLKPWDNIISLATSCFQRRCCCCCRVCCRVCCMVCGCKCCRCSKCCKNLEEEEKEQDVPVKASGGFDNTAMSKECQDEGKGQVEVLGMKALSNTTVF
Assay: Inhibition of NaP2b-mediated Pi (33P) uptake in transfected HEK293 cells, rat NaP2b
Format: cell-based
Details: 33P Pi uptake, 0.1 mM phosphate, value given as pIC50 range
Protocol: HEK293 cells were obtained from the American Type Culture collection and propagated per their instructions. […] The sequence of the human protein was mutated to insert a threonine after residue 37, and to introduce a N39D mutation.
Cells were seeded into 96-well plates at 25,000 cells/well and cultured overnight. Lipofectamine 2000 (Invitrogen) was used to introduce the NaP2b cDNA, and the cells were allowed to approach confluence during a second overnight incubation. […] Each compound was tested at twelve concentrations ranging from 0.1 nM to 30 uM. Assays were run in duplicate.
Cells were lysed by addition of 20 μL 0.1% Tween 80 followed by 100 μL scintillation fluid, and counted using a TopCount (Perkin Elmer).
pIC50 (the negative log of the IC50) values of the test compounds were calculated using GraphPad Prism.

pIC50	SMILES
4.50 to 5.00	C[C@@H]1CN(c2ccc(NC(=O)c3cccc(C(=O)N(C)CCN4CCOCC4)c3)c(-c3cc(C(=O)NCc4cccc(C(F)(F)F)c4)ccn3)c2)C[C@H](C)O1 [Example 95]
5.10 to 6.00	CN(CCN1C[C@H](O)C[C@H]1C(=O)N(C)CCOCCOCCOCCC(=O)OC(C)(C)C)C(=O)c1cccc(C(=O)Nc2ccc(N3CCCCC3)cc2-c2cc(C(=O)N[C@H]3CCCc4ccccc43)ccn2)c1 [Example 241]
5.10 to 6.00	O=C(O)CCSCc1cccc(C(=O)Nc2ccc(N3CCCCC3)cc2-c2cc(C(=O)NCc3ccc(C(F)(F)F)cc3)ccn2)c1 [Example 1.47]
4.50 to 5.00	CC(C)C(=O)NC(CSCc1cccc(C(=O)Nc2ccc(N3CCCCC3)cc2-c2cc(C(=O)NCc3cccc(C(F)(F)F)c3)ccn2)c1)C(=O)O (stereo not shown) [Example 8.12]
5.10 to 6.00	CCN(CC)c1ccc(NC(=O)c2cccc(C(=O)N(C)CCN(C)CCOCCOCCOCCNC(C)=O)c2)c(-c2cc(C(=O)N[C@H]3CCCc4ccccc43)ccn2)c1 [Example 341, (S)—N^1-(4-(Diethylamino)-2-(4-(1,2,3,4-tetrahydronaphthalen-1-ylcarbamoyl)pyridin-2-yl)phenyl)-N^3-methyl-N^3-(3-methyl-16-oxo-6,9,12-trioxa-3,15-diazaheptadecyl)isophthalamide]
4.50 to 5.00	O=C(O)CCSCc1cccc(C(=O)Nc2ccc(N3CCCCC3)cc2-c2nccc(C(=O)NCc3cccc(C(F)(F)F)c3)c2F)c1 [Example 88]
5.10 to 6.00	O=C(O)CCSCc1cccc(C(=O)Nc2ccc(N3CCCCC3)cc2-c2cc(C(=O)NCc3ccc4c(c3)CCO4)ccn2)c1 [Example 1.24]
5.10 to 6.00	O=C(O)c1cccc(CSc2cccc(C(=O)Nc3ccc(N4CCCCC4)cc3-c3cc(C(=O)NCc4cccc(C(F)(F)F)c4)ccn3)c2)c1 [Example 186, 3-((3-(4-(piperidin-1-yl)-2-(4-(3-(trifluoromethyl)benzylcarbamoyl)pyridin-2-yl)phenylcarbamoyl)phenylthio)methyl)benzoic acid]
5.10 to 6.00	C[C@H]1CCCCN1c1ccc(NC(=O)c2cccc(C(=O)N(C)CCN3CCOCC3)c2)c(-c2cc(C(=O)NCc3cccc(C(F)(F)F)c3)ccn2)c1 [Example 105]
5.10 to 6.00	O=C(O)CCSCc1cccc(C(=O)Nc2ccc(N3CCCCC3)cc2-c2cc(C(=O)NC(c3ccccc3)c3ccccc3)ccn2)c1 [Example 1.36]
5.10 to 6.00	CC(=O)N1CCN(Cc2cccc(C(=O)Nc3ccc(N4CCCCC4)cc3-c3cc(C(=O)NCc4cccc(C(F)(F)F)c4)ccn3)n2)CC1 [Example 58, 6-((4-Acetylpiperazin-1-yl)methyl)-N-(4-(piperidin-1-yl)-2-(4-((3-(trifluoromethyl)benzyl)carbamoyl)pyridin-2-yl)phenyl)picolinamide]
4.50 to 5.00	COC[C@@H]1CCCN1c1ccc(NC(=O)c2cccc(C(=O)N(C)CCN3CCOCC3)c2)c(-c2cc(C(=O)NCc3cccc(C(F)(F)F)c3)ccn2)c1 [Example 102]
5.10 to 6.00	CN1CCN(CCN(C)C(=O)c2cccc(C(=O)Nc3ccc(N4CCCCC4)cc3-c3cc(C(=O)NCc4cccc(C(F)(F)F)c4)ccn3)c2)CC1 [Example 82, N1-Methyl-N1-(2-(4-methylpiperazin-1-yl)ethyl)-N3-(4-(piperidin-1-yl)-2-(4-((3-(trifluoromethyl)benzyl)carbamoyl)pyridin-2-yl)phenyl)isophthalamide]
4.50 to 5.00	O=C(O)CCSCc1cccc(C(=O)Nc2ccc(N3CCCCC3)cc2-c2cc(C(=O)NCc3ccc(C(F)(F)F)nc3)ccn2)c1 [Example 1.2, 3-((3-((4-(Piperidin-1-yl)-2-(4-(((6-(trifluoromethyl)pyridin-3-yl)methyl)carbamoyl)pyridin-2-yl)phenyl)carbamoyl)benzyl)thio)propanoic acid]
4.50 to 5.00	Nc1ccccc1CNC(=O)c1ccnc(-c2cc(N3CCCCC3)ccc2NC(=O)c2cccc(CSCCC(=O)O)c2)c1 [Example 1.11]
5.10 to 6.00	CN(Cc1cccc(C(F)(F)F)c1)C(=O)c1ccnc(-c2cc(N3CCCCC3)ccc2NC(=O)c2cccc(CSCCC(=O)O)c2)c1 [Example 1.37]
5.10 to 6.00	CCCCCCCNC(=O)c1ccnc(-c2cc(N3CCCCC3)ccc2NC(=O)c2cccc(CSCCC(=O)O)c2)c1 [Example 1.6]
5.10 to 6.00	COCCNC(=O)[C@H]1CCCN(C(=O)c2cccc(C(=O)Nc3ccc(N4CCCCC4)cc3-c3cc(C(=O)NCc4cccc(C(F)(F)F)c4)ccn3)c2)C1 [Example 4.14, (S)-2-(2-(3-(3-((2-Methoxyethyl)carbamoyl)piperidine-1-carbonyl)benzamido)-5-(piperidin-1-yl)phenyl)-N-(3-(trifluoromethyl)benzyl)isonicotinamide]
5.10 to 6.00	COc1cc(C(F)(F)F)ccc1CNC(=O)c1ccnc(-c2cc(N3CCCCC3)ccc2NC(=O)c2cccc(C(=O)N(C)CCN3CCOCC3)c2)c1 [Example 121, N1-(2-(4-((2-methoxy-4-(trifluoromethyl)benzyl)carbamoyl)pyridin-2-yl)-4-(piperidin-1-yl)phenyl)-N3-methyl-N3-(2-morpholinoethyl)isophthalamide]
5.10 to 6.00	CC(=O)N1CCCN(C(=O)c2cccc(C(=O)Nc3ccc(N4CCCCC4)cc3-c3cc(C(=O)NCc4cccc(C(F)(F)F)c4)ccn3)c2)CC1 [Example 4.13, 2-(2-(3-(4-Acetyl-1,4-diazepane-1-carbonyl)benzamido)-5-(piperidin-1-yl)phenyl)-N-(3-(trifluoromethyl)benzyl)isonicotinamide]
5.10 to 6.00	Cc1ccc(CNC(=O)c2ccnc(-c3cc(N4CCCCC4)ccc3NC(=O)c3cccc(CSCCC(=O)O)c3)c2)o1 [Example 1.18]
4.50 to 5.00	O=C(O)CCSCc1cccc(C(=O)Nc2ccc(N3CCCCC3)cc2-c2cc(C(=O)c3cccc(C(F)(F)F)c3)ccn2)c1 [Example 5.2, 3-((3-((4-(piperidin-1-yl)-2-(4-(3-(trifluoromethyl)benzoyl)pyridin-2-yl)phenyl)carbamoyl)benzyl)thio)propanoic acid]
4.50 to 5.00	O=C(O)CCSCc1cccc(C(=O)Nc2ccc(N3CCCCC3)cc2-c2cc(Oc3cccc(C(F)(F)F)c3)ccn2)c1 [Example 94]
4.50 to 5.00	CC(C)(C)OC(=O)NC(CSCc1cccc(C(=O)Nc2ccc(N3CCCCC3)cc2-c2cc(C(=O)NCc3cccc(C(F)(F)F)c3)ccn2)c1)C(=O)O (stereo not shown) [Example 8.10]
5.10 to 6.00	CN(C)c1ccc(NC(=O)c2cccc(CSCCC(=O)O)c2)c(-c2cc(C(=O)NCc3cccc(C(F)(F)F)c3)ccn2)c1 [Example 120]
5.10 to 6.00	O=C(O)CCOCCOCCOCCOCCOCCOCCOCCOCCSCc1cccc(C(=O)Nc2ccc(N3CCCCC3)cc2-c2cc(C(=O)NCc3cccc(C(F)(F)F)c3)ccn2)c1 [Example 8.22]
5.10 to 6.00	O=C(O)CCSCc1cccc(C(=O)Nc2ccc(N3CCCCC3)cc2-c2cc(C(=O)NCc3cccc(-c4ccccc4)c3)ccn2)c1 [Example 1.42]
4.50 to 5.00	CN(CCN1CCOCC1)C(=O)c1cccc(C(=O)Nc2ccc(N3CCN(c4ncccn4)CC3)cc2-c2cc(C(=O)NCc3cccc(C(F)(F)F)c3)ccn2)c1 [Example 96]
